Assay results from patent US20060229264A1, “Crystalline 6-n-pyridylmethylaminoindolocarbazole compounds” (priority 2003, published 2006).

Legend:
Assay type in all cases: physicochemical
[1] = Test on solubility in water
Text: Solubilities of crystals of intramolecular salts of the compounds of the formulae (II), (III) and (IV) and the corresponding amorphous free bases in water are shown below.

[2] = Solid thermostability test (accelerated test at 80° C. in tightly closed vials); details: after 4 weeks
Method: A solid thermostability test of amorphous free bases and crystals of the compounds represented by the formula (II), the formula (III) and the formula (IV) is shown in Table 1. This test is an accelerated test conducted at 80° C. in tightly closed vials.

[3] = Hygroscopicity test (moisture sorption analyzer); details: for Changes in weight under dehumidifying condition (desorption) compared with humidifying condition: desorption versus adsorption of water, FIG. 3 / FIG. 4; for Weight change rate upon humidification: relative humidity changed from 30% to 75% (adsorption process of water)
Text: Comparing the hygroscopicity of amorphous free base of the compound represented by the above formula (II) with that of crystals of hydrochloride of the same compound, the weight of the amorphous free base increased by 7.6% under the moisturized condition (adsorption process of water), while the weight of the crystal increased as slightly as 1.5% in the case where the comparison was done changing the humidity from 30% to 75% which is the humidity for usual preservation. Thus, the weight change rate of the amorphous free base of the compound represented by the formula (II) upon humidification (relative humidity changes from 30% to 75%) was 7.6%. On the other hand, the weight change rate of the crystals of hydrochloride of the compound represented by the formula (II) upon humidification (relative humidity changes from 30% to 75%) was 1.5%, therefore, the influence by humidification was very little.
Hygroscopicity test was conducted by IGAsorp Moisture Sorption Analyzer, manufacture by Hiden Analytical Limited (refer to FIG. 3).

[4] = Solid light stability test (25° C., 2000 lux light source, tight-closed vials); details: after 4 weeks
Method: A solid light stability test of amorphous free bases and crystals of the compounds represented by the formula (II), the formula (III) and the formula (IV) is shown in Table 2. This test was carried out at 25° C. under the light source of 2000 luxes in tight-closed vials.

Row | Compound | solubility [1] [µg/mL] | Residual Rate (thermostability of solid) [2] [%] | Changes in weight under dehumidifying condition (desorption) compared with humidifying condition [3] | Weight change rate upon humidification [3] [%] | Residual Rate (light stability of solid) [4] [%] | Solubility in water ([1]; listed as Amorphous free base of the compound represented by the formula (II))
1 | O=C1c2c(c3c4ccc(O)cc4n(C4OC(CO)C(O)C(O)C4O)c3c3[nH]c4cc(O)ccc4c23)C(=O)N1NCc1ccncc1CO (centres unmarked) [Crystals of methanesulfonate of the compound of the formula ] |  | 99.1 |  |  |  | 
2 | O=C1c2c(c3c4ccc(O)cc4n(C4OC(CO)C(O)C(O)C4O)c3c3[nH]c4cc(O)ccc4c23)C(=O)N1NCc1ccncc1CO (centres unmarked) [Amorphous free base of the compound of the formula (II)] |  | 87.8 | greatly different | 7.6 | 89.5 | not more than 0.001 mg/mL
3 | O=C1c2c(c3c4ccc(O)cc4n(C4OC(CO)C(O)C(O)C4O)c3c3[nH]c4cc(O)ccc4c23)C(=O)N1NCc1cccc(CO)n1 (centres unmarked) | ≤ 1 | 66.6 |  |  | 78.9 | 
4 | Cl.O=C1c2c(c3c4ccc(O)cc4n(C4OC(CO)C(O)C(O)C4O)c3c3[nH]c4cc(O)ccc4c23)C(=O)N1NCc1ccncc1CO (centres unmarked) | 10000 to 50000 |  | nearly the same | 1.5 | 94.3 | 

Results, then the compound that gave them:

Row | solubility [1] [µg/mL] | Residual Rate (thermostability of solid) [2] [%] | Changes in weight under dehumidifying condition (desorption) compared with humidifying condition [3] | Weight change rate upon humidification [3] [%] | Residual Rate (light stability of solid) [4] [%] | Solubility in water ([1]; listed as Amorphous free base of the compound represented by the formula (II)) | Compound
5 | 10000 to 50000 | 98.4 | nearly the same | 0.6 | 95.8 |  | Cl.O=C1c2c(c3c4ccc(O)cc4n(C4OC(CO)C(O)C(O)C4O)c3c3[nH]c4cc(O)ccc4c23)C(=O)N1NCc1ccncc1 (centres unmarked)
6 |  | 82.9 | significantly different | 2.8 | 84.6 |  | O=C1c2c(c3c4ccc(O)cc4n(C4OC(CO)C(O)C(O)C4O)c3c3[nH]c4cc(O)ccc4c23)C(=O)N1NCc1ccncc1 (centres unmarked) [Amorphous free base of the compound of the formula (IV)]
7 | ≤ 1 |  |  |  |  |  | O=C1c2c(c3c4ccc(O)cc4n(C4OC(CO)C(O)C(O)C4O)c3c3[nH]c4cc(O)ccc4c23)C(=O)N1NCc1ccncc1 (centres unmarked)
8 |  | 99.7 |  |  | 99.5 |  | O=C1c2c(c3c4ccc(O)cc4n(C4OC(CO)C(O)C(O)C4O)c3c3[nH]c4cc(O)ccc4c23)C(=O)N1NCc1ccncc1 (centres unmarked) [Crystals of free base of the compound of the formula (IV)]
9 |  |  |  |  | 95.6 |  | O=C1c2c(c3c4ccc(O)cc4n(C4OC(CO)C(O)C(O)C4O)c3c3[nH]c4cc(O)ccc4c23)C(=O)N1NCc1ccncc1CO (centres unmarked) [Crystals of free base of the compound of the formula (II)]
